Data on 1 compound can be found in patent US10662225B2, “Backbone cyclized inhibitory peptides of myeloid differentiation factor 88 (MyD88)” (Yissum Research Development Company of the Hebrew …, priority 2016, dated 2020).

The test system of this experiment is MyD88-dependent signaling. Briefly: TNFα production by THP-1 derived macrophages stimulated with PAM3csk. It is filed as cell-based, human. The settings on record: THP-1 macrophages, PAM3csk overnight. The procedure:
FIG. 5. Human monocytic THP-1 cells were differentiated to macrophages and were stimulated with PAM3csk overnight in the absence or presence of the cyclic 4-carbon bridge peptide or 6-carbon bridge peptide. TNFα levels in the supernatants were determined by ELISA.
Both cyclic peptides were synthesized with the addition of a tryptophan group to the N-terminus to enable accurate quantification of the molecules.

Numbered stars: 1 amine (or outer) side, 2 acyl side, 3 side chain; on linkers, the order of the positions; unused ones are H or OH. Bridge positions count the residues as written; N and C are the ends. Square brackets hold non-standard residues; d marks the D form. Peptide text beside a SMILES is read from it. CO = O=C([*:1])[*:2]; Nlys = NCCCCNCC(=O)O

Take `CC(C)C[C@@H]1NC(=O)[C@H](C(C)C)NC(=O)[C@H](CC(=O)O)NC(=O)[C@H](CCCNC(=N)N)NC(=O)CN(C(=O)[C@@H](N)Cc2c[nH]c3ccccc23)CCCCNC(=O)NCCCCN(CC(=O)NCC(=O)N[C@H](C(N)=O)[C@@H](C)O)C1=O` [4×4MyDI] (H-W[Nlys]RDVL[Nlys]GT-NH2; linker 2-7 via CO; N-terminus assumed): the “inhibition of TNFα production” value is “outperformed the 6-carbon bridge peptide”.
